target: T1, Recombinant human GR (Homo sapiens, UniProt P04150); assay: GR competitor assay by fluorescence polarization (GR binding ratio); settings: positive control 2 mM dexamethasone, a GR binding ratio of 100% or more is indicated by 100%
T1 construct: purchased Invitrogen P2816
T1 sequence (P04150 1-777): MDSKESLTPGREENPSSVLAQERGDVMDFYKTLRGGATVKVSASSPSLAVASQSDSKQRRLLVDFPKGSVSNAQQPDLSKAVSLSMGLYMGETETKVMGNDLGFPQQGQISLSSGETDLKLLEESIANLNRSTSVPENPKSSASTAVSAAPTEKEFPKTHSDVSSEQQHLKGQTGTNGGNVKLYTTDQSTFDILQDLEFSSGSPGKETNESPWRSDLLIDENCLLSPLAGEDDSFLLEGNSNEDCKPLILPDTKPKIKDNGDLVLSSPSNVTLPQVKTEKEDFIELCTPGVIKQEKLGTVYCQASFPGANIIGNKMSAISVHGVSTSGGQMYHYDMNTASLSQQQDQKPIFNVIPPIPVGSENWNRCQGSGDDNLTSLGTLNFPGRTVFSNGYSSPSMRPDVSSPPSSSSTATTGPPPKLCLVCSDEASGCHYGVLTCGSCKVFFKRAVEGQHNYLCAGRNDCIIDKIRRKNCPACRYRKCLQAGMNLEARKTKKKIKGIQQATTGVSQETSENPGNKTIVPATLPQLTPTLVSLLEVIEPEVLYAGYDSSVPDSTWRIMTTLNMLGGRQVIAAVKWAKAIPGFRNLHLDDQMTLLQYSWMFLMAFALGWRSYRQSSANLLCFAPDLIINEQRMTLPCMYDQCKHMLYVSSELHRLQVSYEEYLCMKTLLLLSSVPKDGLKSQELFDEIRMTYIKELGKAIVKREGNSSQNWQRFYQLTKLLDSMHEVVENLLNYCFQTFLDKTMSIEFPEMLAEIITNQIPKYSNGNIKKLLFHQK
Protocol: 1. Evaluation Test for Binding Activity to Glucocorticoid Receptor (hereinafter referred to as “GR”)
In order to evaluate a binding activity to GR, a receptor competitor assay was carried out by a fluorescence polarization method. In the assay, a GR competitor assay kit (manufactured by Invitrogen, cat No. P2816) was used, and a procedure was carried out according to the protocol attached to the kit. Hereinafter, the specific method will be described.
GR screening buffer: A buffer containing 10 mM potassium phosphate (pH 7.4), 20 mM sodium molybdate (Na2MoO4), 0.1 mM ethylene diamine tetraacetic acid (EDTA), 5 mM dithiothreitol (DTT), 0.1 mM stabilizing peptide and 2% dimethylsulfoxide was prepared.
4×GS1 solution: Fluormone™ GS1, which is a fluorescent glucocorticoid ligand, was diluted with GR screening buffer, whereby a 4 nM solution was prepared.
4×GR solution: Recombinant human GR was diluted with GR screening buffer, whereby a 16 nM solution was prepared.
After a test compound was dissolved in dimethylsulfoxide, the resulting solution was diluted with GR screening buffer, whereby a 20 μM test compound solution was prepared.
1) The test compound solution was added in an amount of 25 μL or 10 μL into each well of a 96-well or 384-well plate, and then, 4×GS1 solution and 4×GR solution were added in an amount of 12.5 μL or 5 μL into each well, respectively.
2) The plate was incubated in a dark place at room temperature for 2 to 4 hours.
3) By using a multimode plate reader, Analyst™ HT (manufactured by LJL Biosystems), fluorescence polarization of each well was measured. As the blank, a well containing GR screening buffer in place of the test compound and 4×GS1 solution was used.
4) The same procedure as that in the above 1) to 3) was carried out except that GR screening buffer was used in place of the test compound solution, and the obtained result was taken as the negative control.
5) The same procedure as that in the above 1) to 3) was carried out except that 2 mM dexamethasone was used in place of the test compound solution, and the obtained result was taken as the positive control.
A GR binding ratio (%) was calculated from the following equation.
GR binding ratio (%)=100×[1−(fluorescence polarization of test compound solution−fluorescence polarization of positive control solution)/(fluorescence polarization of negative control solution−fluorescence polarization of positive control solution)]

Row | SMILES | GR Binding ratio (%)
1 | CCOc1ccccc1NCc1c(-c2ccc(F)cc2OC)ccc2c1C(C)=CC(C)(C)N2 [Compound 6-24, 5-(2-Ethoxyphenylaminomethyl)-6-(4-fluoro-2-methoxyphenyl)-2,2,4-trimethyl-1,2-dihydroquinoline] | ≥ 100%
2 | COc1cc(F)c(F)cc1-c1ccc2c(c1COc1ccccc1C)C(C)=CC(C)(C)N2 [Compound 3-45, 6-(4,5-Difluoro-2-methoxyphenyl)-5-(2-methylphenoxymethyl)-2,2,4-trimethyl-1,2-dihydroquinoline] | 98%
3 | COc1ccc(OCc2ccccc2)cc1-c1ccc2c(c1COc1cc(F)ccc1C)C(C)=CC(C)(C)N2 [Compound 15-2, 6-(5-Benzyloxy-2-methoxyphenyl)-5-(5-fluoro-2-methylphenoxymethyl)-2,2,4-trimethyl-1,2-dihydroquinoline] | 76%
4 | COc1cc(F)ccc1-c1ccc2c(c1COC(=O)c1ccc(C)s1)C(C)=CC(C)(C)N2 [Compound 12-19, 6-(4-Fluoro-2-methoxyphenyl)-5-[(5-methylthiophen-2-yl)carbonyloxymethyl]-2,2,4-trimethyl-1,2-dihydroquinoline] | ≥ 100%
5 | C=CCc1ccccc1OCc1c(-c2cc(Cl)ccc2OC)ccc2c1C(C)=CC(C)(C)N2 [Compound 14-47, 5-(2-Allylphenoxymethyl)-6-(5-chloro-2-methoxyphenyl)-2,2,4-trimethyl-1,2-dihydroquinoline] | ≥ 100%
6 | COc1cc(F)ccc1-c1ccc2c(c1COC(=O)c1ccccc1C)C(C)=CC(C)(C)N2 [Compound 1-46, 6-(4-Fluoro-2-methoxyphenyl)-5-(2-methylbenzoyloxymethyl)-2,2,4-trimethyl-1,2-dihydroquinoline] | ≥ 100%
7 | COc1cc(F)ccc1-c1ccc2c(c1COc1ccccc1CCO)C(C)=CC(C)(C)N2 [Compound 3-68, 6-(4-Fluoro-2-methoxyphenyl)-5-[2(2-hydroxyethyl)phenoxymethyl)-2,2,4-trimethyl-1,2-dihydroquinoline] | ≥ 100%
8 | COc1cc(F)ccc1-c1ccc2c(c1COc1cc(C)cc(C)c1C)C(C)=CC(C)(C)N2 [Compound 3-44, 6-(4-Fluoro-2-methoxyphenyl)-5-(2,3,5-trimethylphenoxymethyl)-2,2,4-trimethyl-1,2-dihydroquinoline] | 98%
9 | COc1ccccc1NCc1c(-c2ccc(F)cc2OC)ccc2c1C(C)=CC(C)(C)N2 [Compound 6-20, 6-(4-Fluoro-2-methoxyphenyl)-5-(2-methoxyphenylaminomethyl)-2,2,4-trimethyl-1,2-dihydroquinoline] | ≥ 100%
10 | COc1ccc(C(F)(F)F)cc1-c1ccc2c(c1COc1cc(F)ccc1C)C(C)=CC(C)(C)N2 [Compound 14-15, 5-(5-Fluoro-2-methylphenoxymethyl)-6-(2-methoxy-5-trifluoromethylphenyl)-2,2,4-trimethyl-1,2-dihydroquinoline] | 99%
11 | COc1cc(F)ccc1-c1ccc2c(c1COc1cc(Cl)ccc1C)C(C)=CC(C)(C)N2 [Compound 3-56, 6-(4-Fluoro-2-methoxyphenyl)-5-(5-chloro-2-methylphenoxymethyl)-2,2,4-trimethyl-1,2-dihydroquinoline] | 98%
12 | COc1cc(F)c(F)cc1-c1ccc2c(c1COC(=O)c1ccc(C)s1)C(C)=CC(C)(C)N2 [Compound 12-54, 6-(4,5-Difluoro-2-methoxyphenyl)-5-[(5-methylthiophen-2-yl)carbonyloxymethyl]-2,2,4-trimethyl-1,2-dihydroquinoline] | ≥ 100%
13 | COc1ccc(C(=O)OCc2c(-c3cc(F)ccc3OC)ccc3c2C(C)=CC(C)(C)N3)cc1 [Compound 12-75, 6-(5-Fluoro-2-methoxyphenyl)-5-(4-metoxybenzoyloxymethyl)-2,2,4-trimethyl-1,2-dihydroquinoline] | ≥ 100%
14 | C=CCc1ccccc1OCc1c(-c2cc(F)ccc2OC)ccc2c1C(C)=CC(C)(C)N2 [Compound 14-45, 5-(2-Allylphenoxymethyl)-6-(5-fluoro-2-methoxyphenyl)-2,2,4-trimethyl-1,2-dihydroquinoline] | ≥ 100%
15 | COc1cc(F)ccc1-c1ccc2c(c1CNc1cc(C)ccc1C)C(C)=CC(C)(C)N2 [Compound 6-53, 5-(2,5-Dimethylphenylaminomethyl)-6-(4-fluoro-2-methoxyphenyl)-2,2,4-trimethyl-1,2-dihydroquinoline] | 95%
16 | COc1cc(F)c(F)cc1-c1ccc2c(c1COc1cc(F)ccc1C)C(C)=CC(C)(C)N2 [Compound 3-57, 6-(4,5-Difluoro-2-methoxyphenyl)-5-(5-fluoro-2-methylphenoxymethyl)-2,2,4-trimethyl-1,2-dihydroquinoline] | 98%
17 | COc1cc(O)ccc1-c1ccc2c(c1COc1cc(F)ccc1C)C(C)=CC(C)(C)N2 [Compound 5-3, 5-(5-Fluoro-2-methylphenoxymethyl)-6-(4-hydroxy-2-methoxyphenyl)-2,2,4-trimethyl-1,2-dihydroquinoline] | ≥ 100%
18 | COc1cc(F)c(F)cc1-c1ccc2c(c1COC(=O)c1cccs1)C(C)=CC(C)(C)N2 [Compound 12-53, 6-(4,5-Difluoro-2-methoxyphenyl)-5-[(thiophen-2-yl)carbonyloxymethyl]-2,2,4-trimethyl-1,2-dihydroquinoline] | ≥ 100%
19 | C/C=C/c1ccccc1OCc1c(-c2ccc(F)cc2OC)ccc2c1C(C)=CC(C)(C)N2 [Compound 3-62, 6-(4-Fluoro-2-methoxyphenyl)-5-[2-(1-propenyl)phenoxymethyl]-2,2,4-trimethyl-1,2-dihydroquinoline] | ≥ 100%
20 | CCc1ccccc1NCc1c(-c2ccc(F)cc2OC)ccc2c1C(C)=CC(C)(C)N2 [Compound 6-45, 5-(2-Ethylphenylaminomethyl)-6-(4-fluoro-2-methoxyphenyl)-2,2,4-trimethyl-1,2-dihydroquinoline] | 96%
21 | COc1ccc(Cl)cc1-c1ccc2c(c1COc1cc([N+](=O)[O-])ccc1C)C(C)=CC(C)(C)N2 [Compound 14-12, 6-(5-Chloro-2-methoxyphenyl)-5-(2-methyl-5-nitrophenoxymethyl)-2,2,4-trimethyl-1,2-dihydroquinoline] | ≥ 100%
22 | COc1cc(F)ccc1-c1ccc2c(c1COc1cc(F)ccc1C)C(C)=CC(C)(C)N2 [Compound 3-48, 6-(4-Fluoro-2-methoxyphenyl)-5-(5-fluoro-2-methylphenoxymethyl)-2,2,4-trimethyl-1,2-dihydroquinoline] | ≥ 100%
23 | CCOc1cc(F)ccc1-c1ccc2c(c1COC(=O)c1ccc(C)s1)C(C)=CC(C)(C)N2 [Compound 12-58, 6-(2-Ethoxy-4-fluorophenyl)-5-[(5-methylthiophen-2-yl)carbonyloxymethyl]-2,2,4-trimethyl-1,2-dihydroquinoline] | ≥ 100%
24 | COc1ccc(C(F)(F)F)cc1-c1ccc2c(c1CNc1cc(F)ccc1C)C(C)=CC(C)(C)N2 [Compound 6-79, 5-(5-Fluoro-2-methylphenylaminomethyl)-6-(2-methoxy-5-trifluoromethylphenyl)-2,2,4-trimethyl-1,2-dihydroquinoline] | ≥ 100%

From patent US8017775B2, “1-2-dihydroquinoline derivative having glucocorticoid receptor binding activity” (Santen Pharmaceutical Co., Ltd., priority 2005, dated 2011)
